Type in all cases: physicochemical
The nature of data set [1]: Polymorphism of API before and after electrospinning (XRD, DSC). The following applies: free-surface electrospinning from PVP/ethanol suspension. The procedure: Scanning electron microscopy (SEM) was used to analyze the morphology of the fibers. A Quorum Technologies SC7640 high resolution gold/palladium sputter coater was used to coat the samples, and a JEOL 6060 SEM at 5 kV operating voltage was used to obtain images. Both X-ray diffraction (XRD) and differential scanning calorimetry (DSC) were used to confirm the presence of crystals and analyze the polymorph present in the electrospun fibers. XRD was performed on a PANalytical X′Pert Pro with a reflection-transmission spinner PW 3064/60 sample stage and a Cu X-ray source with a 1.54 Å wavelength. DSC was performed on a TA DSC Q2000 instrument using a 2-6 mg sample in an aluminum sample pan. The materials were heated at 10° C./min to 250° C. and 200° C. for ABZ and FAM, respectively.

Data set [2] in a line: Drug loading in electrospun fibers by UV-vis spectroscopy. The following applies: 1:2 API:PVP, nominal API loading 33 wt %; average of three measurements. The procedure:
In order to determine the actual drug loading in the electrospun fibers, samples were analyzed with a Perkin-Elmer (Waltham, Mass.) double-beam Lambda25 UV-vis spectrophotometer. A standard curve was prepared for ABZ in methanol for concentrations from 0.005 mg/mL to 0.05 mg/mL at an absorbance of 295 nm and for FAM in methanol for concentrations from 0.002 mg/mL to 0.035 mg/mL at an absorbance of 286 nm. […] A known mass of electrospun mat was dissolved in a known volume of methanol and diluted such that the expected concentration of API fell within the concentration ranges covered by the standard curves. From the resulting measured concentration, the mass of API in the original mat sample, and thus the weight percent API in the electrospun mat was calculated. Three measurements were made per API and were averaged to give the reported value.

The nature of data set [3]: USP dissolution test of compressed electrospun tablets vs compressed powder tablets. The note with it: USP apparatus II, 50 rpm, 37° C., 900 mL; 0.1 N HCl for ABZ, 0.1 M Phosphate buffer for FAM; 150 mg 9 mm tablets, 1:2 API:PVP.
Method: Powder tablets were prepared by weighing out 50 mg API powder and 100 mg PVP powder, mixing for 1 min, and pressing into 9 mm tablets using the same press with the same insertion depth. The electrospun tablets were compared to the compressed powder tablets for analysis. […] Dissolution was performed using a Varian VK 7025 dissolution bath (Agilent, Santa Clara, Calif.) and a Cary 50 Bio UV spectrophotometer (Agilent, Santa Clara, Calif.). For ABZ the standard USP methods were used with 900 mL 0.1 N HCl media, apparatus II, 50 rpm paddle speed and a temperature of 37° C. For FAM standard USP methods were used with 900 mL 0.1 M Phosphate buffer media, apparatus II, 50 rpm paddle speed, and a temperature of 37° C. Measurements were made every minute for 90 minutes by probes inserted in the bath and connected to the spectrophotometer by fiber optic cables.

“Also recorded” adds a separate entry of the source.

For the molecule `CCCSc1ccc2nc(NC(=O)OC)[nH]c2c1` [ABZ, albendazole], the “polymorphism of the API through the electrospinning process” value in data set [1] is “retained their polymorphism throughout processing; also recorded: not significantly affected”. Further, the “average loading of API in the electrospun fibers” value in data set [2] is reported as 31 wt %. The “dissolution amount, electrospun formulation relative to compressed powder tablet” value in data set [3] was “more than twice the dissolution amount”.
The corresponding values for `NC(N)=Nc1nc(CSCCC(N)=NS(N)(=O)=O)cs1` [FAM, famotidine] are “retained their polymorphism throughout processing”, 26 wt % and “more than twice the dissolution amount”.
